# “Also recorded” adds a separate entry of the source. Where a name gives a salt, the structure may show the parent alone. Read-outs that look alike come from different tables or passages of the source.
# Columns and labels:
# [1] = system: Plasmodium berghei KBG 173; experiment: Survival of mice infected with drug-sensitive malaria, compound of Synthesis Example 3, halofantrine or mefloquine; assay type: in vivo, Plasmodium berghei KBG 173 in ICR/HA Swiss mice; settings: SC
# Source text: The protocol which is set forth below is a well-established model for the treatment of malaria in human beings, and has been adopted by the U.S. Army Medial Research Command.
# The system used for the compounds formed in Synthesis Examples 2 and 3 was based on comparisons of responses to test compounds by Plasmodium berghei KBG 173 malaria in mice as expressed in mean survival times and the mean survival times of untreated controls. Thus, compounds noted as active produced increases in the survival times of the treated animals that are significant when compared with the survival times of untreated controls. Since an established disease is less sensitive to treatment than a disease in the early stages of development, treatment was withheld until the parasitemia was relatively high in order to ensure a more reliable assay of activity and the selection of appropriate compounds for pre-clinical studies.
# (§1) Utilizing young ICR/HA Swiss mice and a standard inoculum of Plasmodium berghei KBG 173, it was possible to produce a uniform disease fatal to […] of untreated animals within 6 to 8 days with a mean survival time of 6.2 days. Test animals weighed from 18 to 22 grams but weight variations in any given experimental or control group were confined to 2-3 grams. All animals in any given test were approximately of the same age. Animals on test were housed in metal-topped plastic cages, given a standard laboratory diet and water ad libitum.
# (§2) Test animals received an intraperitoneal injection of 0.5 ml of 1:100 dilution of heparinized heart's blood with a minimum of 90% parasitized cells (4×10^7 cells), drawn from donor mice infected one week earlier with Plasmodium berghei. The donor strain was maintained by weekly passages in separate groups of mice inoculated with a 0.5 ml of 1:500 dilution of heparinized heart's blood.
# (§3) Test compounds were administered after dissolution or suspension in peanut oil. A single dose was given subcutaneously 72 hours after the mice were infected with Plasmodium berghei. At this time a 10-15 percent parasitemia had developed; the disease was well established but had not produced sufficient debility to alter the response of the host to toxic effects of the drug on test. Since treatment was withheld for three days to permit the infection to become well-established and death occurred in untreated controls within 6-8 days, it was felt that this system presented a candidate compound with the maximum challenge.
# [2] = system: Plasmodium berghei KBG 173; experiment: as above; assay type: in vivo, Plasmodium berghei KBG 173 in ICR/HA Swiss mice
# Plasmodium berghei = experiment: Positive control group of infected mice treated with pyrimethamine; assay type: in vivo, Plasmodium berghei in ICR/HA Swiss mice; settings: dose levels not stated
# Protocol: as §3
# [3] = system: Plasmodium falciparum FCM 29/Cameroon; experiment: In vitro drug susceptibility test ([3H]hypoxanthine uptake), strain FCM 29/Cameroon; assay type: cell-based
# Protocol: (§4) Three strains of P. falciparum were used. FCM 29/Cameroon was highly chloroquine- and quinine-resistant (IC50 […] and 800 nM, respectively). The strain was cloned by a dilution method. FCM 6/Thailand was moderately chloroquine-resistant (IC50 600 nM), while L-3/Ivory Coast was chloroquine-susceptible (IC50 20 nM). The continuous in vitro culture of the parasites was maintained under standard conditions, as described by W. Trager and J. B. Jensen, "Human malaria parasites in continuous culture", Science 193, 673-675 (1976), with a gas phase of 5% O2, 5% CO2, and 90% N2.
# (§5) The test compound was dissolved in methanol to a concentration of 1 mg/ml. Triplicates of seven serial dilutions were prepared to obtain the final concentrations ranging from 0.4 to 25 ng/ml and distributed in 24-well plates. […]
# (§6) The testing procedures used for the in vitro assay in this study were those described by J. Le Bras and P. Deloron, "In vitro study of drug sensitivity of Plasmodium falciparum: an evaluation of a new semi-microtest", American Journal of Tropical Medicine and Hygiene 32: 447-451 (1983). […] The filter discs were dried and placed in a mini-vial with 1.5 ml of liquid scintillation cocktail (OptiScint `Hisafe`, LKB, Wallac, England) and the amount of radioactivity incorporated by the parasites was measured by a liquid scintillation counter (Wallac 1410, Pharmacia, Sweden). […]
# [4] = system: Plasmodium falciparum FCM 6/Thailand; experiment: In vitro drug susceptibility test ([3H]hypoxanthine uptake), strain FCM 6/Thailand; assay type: cell-based; settings: mean ± SEM from four separate assays
# Protocol: as §4, §5, §6
# [5] = system: Plasmodium falciparum L-3/Ivory Coast; experiment: In vitro drug susceptibility test ([3H]hypoxanthine uptake), strain L-3/Ivory Coast; assay type: cell-based; settings: two values given
# Protocol: as §4, §5, §6
# Plasmodium falciparum = experiment: In vitro antimalarial activity against established lines of P. falciparum (overall statement); assay type: cell-based
# Protocol: The compound of Synthesis Example 1 was tested against the established lines of Plasmodium falciparum in vitro. Halofantrine hydrochloride was used as a reference drug.
# as §4
# The test compound was dissolved in methanol to a concentration of 1 mg/ml. […]
# as §6
# [6] = system: Plasmodium berghei KBG 173; experiment: Survival of malaria infected mice, compound of Synthesis Example 2, halofantrine or mefloquine; assay type: in vivo, Plasmodium berghei KBG 173 in ICR/HA Swiss mice
# [7] = system: Plasmodium berghei KBG 173; experiment: Mean parasitemias for mice treated with the compound of Synthesis Example 2; assay type: in vivo, Plasmodium berghei KBG 173 in ICR/HA Swiss mice
# [8] = Toxicity in malaria infected mice; assay type: in vivo, ICR/HA Swiss mice; settings: 256 mg/kg/day
# Source text: as §1, §2
# Test compounds were administered after dissolution or suspension in peanut oil. A single dose was given subcutaneously 72 hours after the mice were infected with Plasmodium berghei. At this time a 10-15 percent parasitemia had developed; the disease was well established but had not produced sufficient debility to alter the response of the host to toxic effects of the drug on test. […]
# [9] = system: P. falciparum (multi-drug resistant Vietnam Smith strain and Cambodian Buchanan strain); settings: short period, minimum of two doses; Vietnam Smith and Cambodian Buchanan strains; cited from earlier work
# [10] = system: Chesson strain of P. vivax; settings: short period, minimum of two doses; cited from earlier work
# [11] = in vivo; cited from earlier work
# [12] = system: Plasmodium falciparum (chloroquine-sensitive and resistant strains); settings: cited from earlier work
compound,measurement,setting,value
"Cl.OC(CCNCCCc1ccccc1)c1cc2c(Cl)cc(Cl)cc2c2cc(C(F)(F)F)ccc12 (centres unmarked) [Synthesis Example 3, 1,3-dichloro-6-trifluoromethyl-9-[1-hydroxy-3-(3-phenyl-1-propylamino)propyl] phenanthrene hydrochloride]",number of mice alive D + 18 / total,[1]; 16 mg/kg/day,7/7
same,number of mice alive D + 18 / total,"[2]; 1 mg/kg/day, PO",2/7
same,number of mice alive D + 18 / total,"[2]; 1 mg/kg/day, SC",1/7
same,number of mice alive D + 18 / total,"[2]; 4 mg/kg/day, PO",6/7
same,number of mice dead/day died,"[2]; 4 mg/kg/day, PO",1/8
same,number of mice alive D + 18 / total,"[2]; 4 mg/kg/day, SC",7/7
same,number of mice alive D + 18 / total,"[2]; 16 mg/kg/day, PO",7/7
same,number of mice alive D + 18 / total,"[2]; 64 mg/kg/day, PO",7/7
same,number of mice alive D + 18 / total,"[2]; 64 mg/kg/day, SC",7/7
same,number of mice alive D + 18 / total,"[2]; 256 mg/kg/day, PO",6/7
same,number of mice dead/day died,"[2]; 256 mg/kg/day, PO",1/4
same,number of mice alive D + 18 / total,"[2]; 256 mg/kg/day, SC",7/7
CCc1nc(N)nc(N)c1-c1ccc(Cl)cc1 [pyrimethamine],survival time,Plasmodium berghei,definite increases in survival time
"CCCCNCCC(O)c1cc2c(Cl)cc(Cl)cc2c2cc(C(F)(F)F)ccc12.Cl (centres unmarked) [Synthesis Example 1, 1,3-Dichloro-6-trifluoromethyl-9-[1-hydroxy-3-(butylamino)propyl] phenanthrene hydrochloride]",IC50,[3],3.5 ± 0.6 ng/mL
same,IC50,[4],3 ± 0.2 ng/mL
same,IC50,[5]; Plasmodium falciparum,4.3 ng/mL
same,IC50,[5]; hydrochloride,4.8 ng/mL
same,activity compared with halofantrine,"Plasmodium falciparum; P. falciparum, reference halofantrine",slightly less than that of halofantrine
same,antimalarial activity,"Plasmodium falciparum; chloroquine-susceptible and chloroquine-resistant strains, hydrochloride",high antimalarial activity against both chloroquine-susceptible and chloroquine-resistant strains; also recorded: potent antimalarial action at a low nanomolar range
"1,3-dichloro-6-triflurormethyl-[1-hydroxy-3-(3-phenyl-1-propylamino)propyl] phenanthrene quinate [Synthesis Example 2]",number of mice alive day 21/total,"[6]; 1 mg/kg/day, PO",3/7
same,number of mice alive day 21/total,"[6]; 1 mg/kg/day, SC",3/7
same,number of mice alive day 21/total,"[6]; 4 mg/kg/day, PO",7/7
same,number of mice alive day 21/total,"[6]; 4 mg/kg/day, SC",5/7
same,number of mice alive day 21/total,"[6]; 16 mg/kg/day, PO",6/7
same,number of mice dead/day died,"[6]; 16 mg/kg/day, PO",1/21
same,number of mice alive day 21/total,"[6]; 16 mg/kg/day, SC",7/7
same,number of mice alive day 21/total,"[6]; 64 mg/kg/day, PO",7/7
same,number of mice alive day 21/total,"[6]; 64 mg/kg/day, SC",7/7
same,number of mice alive day 21/total,"[6]; 256 mg/kg/day, PO",1/7
same,number of mice alive day 21/total,"[6]; 256 mg/kg/day, SC",5/7
same,mean parasitemia,"[7]; 4 mg/kg/day, oral",31.2
same,mean parasitemia,"[7]; 4 mg/kg/day, subcut.",45.2
same,mean parasitemia,"[7]; 16 mg/kg/day, oral",16.3
same,mean parasitemia,"[7]; 16 mg/kg/day, subcut.",10.7
same,mean parasitemia,"[7]; 64 mg/kg/day, oral",0.14
same,mean parasitemia,"[7]; 64 mg/kg/day, subcut.",0.4
same,mean parasitemia,"[7]; 256 mg/kg/day, oral",1.00
same,mean parasitemia,"[7]; 256 mg/kg/day, subcut.",0.00
same,mean parasitemia,"[7]; 1 (printed ""l"") mg/kg/day, oral",19.3
same,mean parasitemia,"[7]; 1 (printed ""l"") mg/kg/day, subcut.",61.7
same,toxicity,[8],Toxicity clearly evident at this level
"CCCCN(CCCC)CCC(O)c1cc2c(Cl)cc(Cl)cc2c2cc(C(F)(F)F)ccc12 (centres unmarked) [halofantrine, 1-[1,3-dichlorotrifluoromethyl-9-phenanthryl]-3-di-(n-butyl)-aminopropanolhydrochloride]",number of mice alive day 21/total,"[6]; 1 mg/kg/day, PO",4/7
same,number of mice alive day 21/total,"[6]; 1 mg/kg/day, SC",2/7
same,number of mice alive day 21/total,"[6]; 4 mg/kg/day, PO",6/7
same,number of mice dead/day died,"[6]; 4 mg/kg/day, PO",1/19
same,number of mice alive day 21/total,"[6]; 4 mg/kg/day, SC",7/7
same,number of mice alive day 21/total,"[6]; 16 mg/kg/day, PO",6/7
same,number of mice dead/day died,"[6]; 16 mg/kg/day, PO",1/19
same,number of mice alive day 21/total,"[6]; 16 mg/kg/day, SC",6/7
same,number of mice dead/day died,"[6]; 16 mg/kg/day, SC",1/21
same,number of mice alive D + 18 / total,[1]; 1 mg/kg/day,5/7
same,number of mice alive D + 18 / total,[1]; 4 mg/kg/day,7/7
same,number of mice alive D + 18 / total,[1]; 16 mg/kg/day,7/7
same,number of mice alive D + 18 / total,"[2]; 1 mg/kg/day, PO",4/7
same,number of mice dead/day died,"[2]; 1 mg/kg/day, PO",3/18
same,number of mice alive D + 18 / total,"[2]; 4 mg/kg/day, PO",6/7
same,number of mice dead/day died,"[2]; 4 mg/kg/day, PO",1/18
same,number of mice alive D + 18 / total,"[2]; 16 mg/kg/day, PO",6/6
same,antimalarial efficacy,[9],effective
same,antimalarial efficacy,[10],effective
same,systemic bioavailability,[11],problems with systemic bioavailability remained
"OC(c1cc(C(F)(F)F)nc2c(C(F)(F)F)cccc12)C1CCCCN1 (stereo not drawn) [Mefloquine, α-2-piperidinyl-2,8-bis(trifluorormethyl)-4-quinoline methanol]",number of mice alive day 21/total,"[6]; 1 mg/kg/day, PO",0/7
same,number of mice alive day 21/total,"[6]; 4 mg/kg/day, PO",3/7
same,number of mice alive day 21/total,"[6]; 16 mg/kg/day, PO",7/7
same,number of mice alive D + 18 / total,[1]; 1 mg/kg/day,0/7
same,number of mice alive D + 18 / total,[1]; 4 mg/kg/day,4/7
same,number of mice alive D + 18 / total,[1]; 16 mg/kg/day,7/7
same,number of mice alive D + 18 / total,"[2]; 1 mg/kg/day, PO",0/7
same,number of mice alive D + 18 / total,"[2]; 4 mg/kg/day, PO",6/7
same,number of mice dead/day died,"[2]; 4 mg/kg/day, PO",1/16
same,number of mice dead/day died,"[2]; 4 mg/kg/day, SC",3/13
same,number of mice alive D + 18 / total,"[2]; 16 mg/kg/day, PO",7/7
same,antimalarial activity in humans,[12],exhibit antimalarial activity in humans against both chloroquine-sensitive and resistant strains
"C=C[C@H]1C[N@@]2CC[C@H]1C[C@H]2[C@H](O)c1ccnc2ccc(OC)cc12 [quinine, reference compound]",IC50,[3]; read-out: IC50 (strain resistance),800 nM
